According to US20230033047A1, “Estrogen Metabolite Levels And Cancer Driver Gene Mutations In Lung Cancer Risk Stratification And Treatment” (Institute For Cancer Research d/b/a The Research Institute …, priority 2020, published 2023):
“Also recorded” adds a separate entry of the source. Marks after values point to notes of the source that are not given here.

How the values were obtained:
Assay type in all cases: cell-based, human
[1] = tested on: HBEC-57KT cells; assay: Soft agar assay (anchorage independent growth, transformation) of HBEC-57KT cells; conditions: for transformation, ability to grow in soft agar: 2, 10, 50, or 100 nM for 27 weeks, FIG. 3; for colony formation / transformation in soft agar: 35 weeks of chronic treatment; for # Established: Experiment 2, picked clones established in culture
Source text: (§1) Three immortalized human bronchial epithelial cell lines (HBEC-57KT, -65KT, and -66KT) were used (see, Ramirez et al., Cancer Res., 2004, 64, 9027-34). […] Cells were immortalized by over-expressing Cdk4 and human telomerase reverse transcriptase (hTERT) to emulate two of the earliest events in lung cancer pathogenesis: abrogation of the p16/RB cell cycle checkpoint pathway and bypass of replicative senescence. HBEC-57KT, -65KT, and -66KT cells were maintained in keratinocyte serum-free (KSF) media containing 50 μg/ml bovine pituitary extract and 5 ng/ml epidermal growth factor. Initially, cells were chronically treated with 0.1% DMSO (vehicle) or 100 nM E2, 4-OHE1 or 4-OHE2. Subsequently, a broader dose range was tested, including 2, 10, 50, or 100 nM […]1, or 2-OHE2. Exposure times ranged from a minimum of 18 weeks and a maximum of 40 weeks. An aliquot from each cell line and treatment was banked in liquid nitrogen every 1-2 weeks. […] Natl. Acad. Sci. USA, 1978, 75, 4001-5). Briefly, each well of a 12-well plate was coated with 0.6% agarose/KSF media. Wells were overlaid with 0.3% agarose/KSF media containing 5000 HBEC-KT cells. RKO colon carcinoma cells were included as a positive control. Each assay was performed in triplicate. After 4-6 weeks, plates were either stained with crystal violet for counting or used to isolate viable clones. Transformed clones were picked using a p200 pipette tip, placed back in culture under pre-treatment conditions in KSF media, and expanded for future analyses.

[2] = tested on: HBEC-57KT cells; assay: Comet assay of DNA damage in HBEC-57KT cells; conditions: HBEC-57KT (high-activity CYP1B1, low-activity COMT); short-term treatment; FIG. 4
Description: (§2) DNA was extracted from expanded clones for sequencing. The mutation status of 50 oncogenic driver genes was examined in transformed cells by next-gen sequencing using an AmpliSeq Illumina for Cancer Hotspot Panel v2. Data were analyzed using Illumina software. DNA damage induced by short-term treatment with estrogens was measured using the Comet assay (see, Mozaffarieh et al., Mol. Vis., 2008, 14, 1584-8). Other assays, however, may be used as desired.

[3] = tested on: HBEC-65KT cells; assay: Comet assay of DNA damage in HBEC-65KT cells; conditions: HBEC-65KT (high-activity CYP1B1, low-activity COMT); short-term treatment; FIG. 4
Description: as §2

[4] = tested on: HBEC-65KT cells; assay: Soft agar assay (anchorage independent growth, transformation) of HBEC-65KT cells; conditions: for # Established: Experiment 2, picked clones established in culture
Source text: as §1

[5] = tested on: HBEC-66KT cells; assay: Soft agar assay (anchorage independent growth, transformation) of HBEC-66KT cells; conditions: chronic treatment, data not shown
Source text: Three immortalized human bronchial epithelial cell lines (HBEC-57KT, -65KT, and -66KT) were used (see, Ramirez et al., Cancer Res., 2004, 64, 9027-34). […] Cells were immortalized by over-expressing Cdk4 and human telomerase reverse transcriptase (hTERT) to emulate two of the earliest events in lung cancer pathogenesis: abrogation of the p16/RB cell cycle checkpoint pathway and bypass of replicative senescence. HBEC-57KT, -65KT, and -66KT cells were maintained in keratinocyte serum-free (KSF) media containing 50 μg/ml bovine pituitary extract and 5 ng/ml epidermal growth factor. Initially, cells were chronically treated with 0.1% DMSO (vehicle) or 100 nM E2, 4-OHE1 or 4-OHE2. Subsequently, a broader dose range was tested, including 2, 10, 50, or 100 nM […]1, or 2-OHE2. Exposure times ranged from a minimum of 18 weeks and a maximum of 40 weeks. An aliquot from each cell line and treatment was banked in liquid nitrogen every 1-2 weeks. At specific timepoints (18, 24 and 34 weeks post-treatment), each treated cell line was assayed for transformation by assessing anchorage independent growth in soft agar according to the method of de Larco and Todaro (see, de Larco et al., Proc. Natl. Acad. Sci. USA, 1978, 75, 4001-5). Briefly, each well of a 12-well plate was coated with 0.6% agarose/KSF media. Wells were overlaid with 0.3% agarose/KSF media containing 5000 HBEC-KT cells. RKO colon carcinoma cells were included as a positive control. Each assay was performed in triplicate. After 4-6 weeks, plates were either stained with crystal violet for counting or used to isolate viable clones. Transformed clones were picked using a p200 pipette tip, placed back in culture under pre-treatment conditions in KSF media, and expanded for future analyses.

[6] = Experiment 2, chronic treatment, 100 nM, soft agar
[7] = Experiment 3, 18 weeks treated, colonies diffuse, did not grow once picked (not fully transformed)

Compound	transformation, ability to grow in soft agar [1]	DNA damage, comet tail moment vs. DMSO [2]	DNA damage, comet tail moment vs. DMSO [3]	colony formation / transformation in soft agar [1]	# Colonies [1, 6]	# Established [1]	# Colonies [1, 7]	# Colonies ([1]; Experiment 3, 35 weeks treated)	colony formation in soft agar ([4]; 35 weeks of chronic treatment)	# Colonies [4, 6]	# Established [4]	# Colonies ([4]; Experiment 3, 18 weeks treated)	# Colonies ([4]; Experiment 3, 35 weeks treated)	transformation [5]
C[C@]12CC[C@@H]3c4cc(O)c(O)cc4CC[C@H]3[C@@H]1CCC2=O [2-OHE1]	can transform HBEC-57KT cells	–	–	–	–	–	–	–	–	–	–	–	–	–
C[C@]12CC[C@@H]3c4ccc(O)cc4CC[C@H]3[C@@H]1CC[C@@H]2O [E2, 17β estradiol]	can transform HBEC-57KT cells	induce DNA damage	induce DNA damage	low level colony formation	13	6	0	30	low level colony formation	11	4	0	34	None of the tested treatments; also recorded: negative for transformation
C[C@]12CC[C@@H]3c4cc(O)c(O)cc4CC[C@H]3[C@@H]1CC[C@@H]2O [2-OHE2]	can transform HBEC-57KT cells	–	–	–	–	–	–	–	–	–	–	–	–	–
C[C@]12CC[C@@H]3c4ccc(O)c(O)c4CC[C@H]3[C@@H]1CC[C@@H]2O [4-OHE2]	can transform HBEC-57KT cells	induce DNA damage	induce DNA damage	efficient colony formation	40	11	4*	54	–	0	0	–	0	None of the tested treatments; also recorded: negative for transformation
C[C@]12CC[C@@H]3c4ccc(O)c(O)c4CC[C@H]3[C@@H]1CCC2=O [4-OHE1]	can transform HBEC-57KT cells	–	–	also transformed HBEC-57KT cells	0	0	–	5 (small)	–	0	0	–	0	None of the tested treatments; also recorded: negative for transformation
